Source: patent US4600705A, “Gonadoliberin derivatives containing a β-aspartyl group, a process for the preparation thereof and pharmaceutical preparations containing them” (Richter Gedeon Veyteszeti Gyar R.T., priority 1983, dated 1986)

Experiments:
[1] = tested on: sterlet and catfish mother fishes; assay: spawning (roe deposition / ovulation) of sterlet and catfish mother fishes; format: in vivo; settings: control group under the same conditions
cattle = assay: pregnancy ratio of cattle, dosing simultaneously with insemination; format: in vivo; settings: same dose (100 μg/dose)
blue and silver foxes = assay: extra-seasonal rutting of blue and silver foxes; format: in vivo; settings: single dose of 10 μg
female turkeys = assay: brooding time of female turkeys; format: in vivo, turkey

| Substance | ovulation (in words) [1] | effect on the pregnancy ratio (in words) (cattle) | extra-seasonal rutting (blue and silver foxes) | brooding time (female turkeys) |
| --- | --- | --- | --- | --- |
| D-Phe^6, desGly^10 -LH-RH-ethylamide | no ovulation occurred |  |  |  |
| native LH-RH: gonadoliberine, gonadotrop releasing hormone; native hormone used as comparator (QHWSYGLRPG; Gonadoliberin-1; UniProt P01148 24-33, looked up) |  | not efficacious | inefficacious | ineffective |
